Experimental data reported in ChEMBL document CHEMBL1201862, “PubChem BioAssay data set” (2004).
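In this assay, cells in 96-well plates receive the compound at five concentrations for 48 hours. Endpoints are linearly interpolated between the surrounding concentrations. At the GI50, growth is halved.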 Active and inactive are the calls of the source. Rule as the data show it: active = GI50 up to about 1.1 µM and inactive = higher.

Tests used:
Test in all cases: NCI anticancer screen, dose series, 48 h
[1] = tested on: SK-MEL-5
[2] = tested on: NCI-H460
[3] = tested on: SF-539
[4] = tested on: SR
[5] = tested on: MOLT-4
[6] = tested on: OVCAR-8
[7] = tested on: A549
[8] = tested on: CCRF-CEM
[9] = tested on: SF-295
[10] = tested on: U-251
[11] = tested on: Malme-3M
[12] = tested on: NCI-H23
[13] = tested on: OVCAR-3
[14] = tested on: HOP-62
[15] = tested on: UACC-62
[16] = tested on: SK-OV-3
[17] = tested on: HCC 2998
[18] = tested on: NCI-H522

Measured: GI50

COc1nc(NC2OCC(OC(C)=O)C(OC(C)=O)C2OC(C)=O)c(/N=C(\C)C(C)=O)c(=O)n1C (stereo not drawn)
inactive: [1] > 100 µM | [2] > 100 µM | [3] > 100 µM | [4] > 100 µM | [5] > 100 µM | [6] > 100 µM | [7] > 100 µM | [8] > 100 µM | [9] > 100 µM | [10] > 100 µM | [11] > 100 µM | [12] > 100 µM

O=c1cc(/C=C/c2ccccc2)c2ccc(O/C(=C\c3ccccc3)c3nc4ccccc4c(=O)o3)cc2o1
inactive: [1] 16.3 µM | [2] 23.3 µM | [13] 15 µM | [3] 23.3 µM | [14] 28 µM | [5] 17.6 µM | [6] 28.2 µM | [7] 30.4 µM | [15] 24.7 µM | [8] 16.9 µM | [9] 26.7 µM | [10] 23 µM | [11] 31.3 µM | [16] 39.4 µM | [17] 33.3 µM | [12] 10.6 µM

CN1C(=O)CC2(C)c3cc(C=O)ccc3N(C)C12 (stereo not drawn)
inactive: [1] > 100 µM | [18] > 100 µM | [2] > 100 µM | [13] > 100 µM | [3] > 100 µM | [14] > 100 µM | [5] > 100 µM | [6] > 100 µM | [7] > 100 µM | [15] > 100 µM | [8] > 100 µM | [9] > 100 µM | [10] > 100 µM | [11] > 100 µM | [16] > 100 µM | [17] > 100 µM | [12] > 100 µM

COP(=O)(OC)C(=O)N1N(c2ccc([N+](=O)[O-])cc2)C(=O)C(C)NC1(NNc1ccc([N+](=O)[O-])cc1)P(=O)(OC)OC (stereo not drawn)
inactive: [1] > 100 µM | [18] > 100 µM | [2] > 100 µM | [13] > 100 µM | [3] > 100 µM | [4] > 100 µM | [14] > 100 µM | [5] > 100 µM | [6] > 100 µM | [7] > 100 µM | [15] > 100 µM | [8] > 100 µM | [10] > 100 µM | [11] > 100 µM | [17] > 100 µM | [12] > 100 µM

COC(=O)C1CCC(N2C(=O)CCC2C(=O)OC)=N1 (stereo not drawn)
inactive: [18] > 100 µM | [2] > 100 µM | [13] > 100 µM | [14] > 100 µM | [5] > 100 µM | [6] > 100 µM | [7] > 100 µM | [15] > 100 µM | [8] > 100 µM | [9] > 100 µM | [10] > 100 µM | [11] > 100 µM | [16] > 100 µM | [17] > 100 µM | [12] > 100 µM

CCOC(=O)NC(=O)c1cn(CCCCCOC(=O)NCCCCCCNC(=O)OCCCCCn2cc(C(=O)NC(=O)OCC)c(=O)[nH]c2=O)c(=O)[nH]c1=O
inactive: [1] > 100 µM | [18] > 100 µM | [2] > 100 µM | [13] > 100 µM | [3] > 100 µM | [14] > 100 µM | [5] > 100 µM | [6] > 100 µM | [7] > 100 µM | [15] > 100 µM | [8] > 100 µM | [9] > 100 µM | [10] > 100 µM | [11] > 100 µM | [16] > 100 µM | [17] > 100 µM

O=C(O)C1=C(C(=O)O)Oc2ccccc2O1
inactive: [18] > 100 µM | [2] > 100 µM | [13] > 100 µM | [3] > 100 µM | [4] > 100 µM | [14] > 100 µM | [5] > 100 µM | [6] > 100 µM | [7] > 100 µM | [15] > 100 µM | [8] > 100 µM | [9] > 100 µM | [10] > 100 µM | [11] > 100 µM | [16] > 100 µM | [17] > 100 µM | [12] > 100 µM

CC1(C)C2=CCCC(=O)[C@@]2(C)CC[C@@H]1O
inactive: [1] > 100 µM | [18] > 100 µM | [2] > 100 µM | [13] > 100 µM | [3] > 100 µM | [4] > 100 µM | [14] > 100 µM | [5] > 100 µM | [6] > 100 µM | [7] > 100 µM | [15] > 100 µM | [8] > 100 µM | [9] > 100 µM | [10] > 100 µM | [16] > 100 µM | [17] > 100 µM | [12] > 100 µM

O=C1c2ccccc2C(=O)C2C1C1C(=O)c3ccccc3C(=O)C21 (stereo not drawn)
inactive: [1] 32.6 µM | [18] 26.2 µM | [2] > 100 µM | [13] 40.6 µM | [3] > 100 µM | [14] > 100 µM | [6] > 100 µM | [7] > 100 µM | [15] > 100 µM | [8] > 100 µM | [9] > 100 µM | [10] > 100 µM | [11] 55.1 µM | [16] > 100 µM | [17] 51.6 µM | [12] 99.1 µM

CN1Nc2ccccc2CC1=O
inactive: [1] > 100 µM | [2] > 100 µM | [13] > 100 µM | [3] > 100 µM | [14] > 100 µM | [6] > 100 µM | [7] > 100 µM | [15] > 100 µM | [8] > 100 µM | [9] > 100 µM | [10] > 100 µM | [11] > 100 µM | [16] > 100 µM | [17] > 100 µM | [12] > 100 µM

Cc1ccc(S(=O)(=O)NNC(=O)c2sc(-c3nc(C)c(C(=O)NNS(=O)(=O)c4ccc(C)cc4)s3)nc2C)cc1
inactive: [1] 71.1 µM | [2] > 100 µM | [13] > 100 µM | [3] > 100 µM | [14] > 100 µM | [5] 42.4 µM | [6] > 100 µM | [7] > 100 µM | [15] 72.3 µM | [8] 45.6 µM | [9] > 100 µM | [10] > 100 µM | [11] > 100 µM | [16] > 100 µM | [17] > 100 µM | [12] > 100 µM

Cc1cc2c(c(C(N)=O)c1C)-c1cccc(F)c1C2=O
inactive: [1] > 100 µM | [18] 41.2 µM | [2] > 100 µM | [13] > 100 µM | [3] > 100 µM | [14] > 100 µM | [5] > 100 µM | [6] > 100 µM | [7] > 100 µM | [15] 79.6 µM | [8] > 100 µM | [9] > 100 µM | [10] > 100 µM | [11] > 100 µM | [16] > 100 µM | [17] > 100 µM | [12] > 100 µM

CCN(CC)CCNc1ccc2ncn3c4ccccc4c(=O)c1c23
inactive: [1] 3.52 µM | [18] 2.26 µM | [2] 2.26 µM | [13] 12.8 µM | [3] 5.86 µM | [4] 1.63 µM | [14] 5.81 µM | [5] 2 µM | [6] 2.77 µM | [7] 2.85 µM | [15] 3.91 µM | [8] 4.1 µM | [9] 3.58 µM | [10] 4.52 µM | [11] 3.63 µM | [16] 2.45 µM | [12] 7.06 µM

Cc1nc2nn(Cc3ccccc3)cc2c(=O)o1
inactive: [1] > 100 µM | [2] > 100 µM | [13] > 100 µM | [3] > 100 µM | [14] > 100 µM | [5] > 100 µM | [6] > 100 µM | [7] > 100 µM | [15] > 100 µM | [8] > 100 µM | [9] > 100 µM | [10] > 100 µM | [11] > 100 µM | [17] > 100 µM

CC1c2c(Cl)nc3ccccc3c2Oc2c1c(Cl)nc1ccccc21
inactive: [1] 30.3 µM | [18] 43.8 µM | [2] > 100 µM | [13] 81.8 µM | [3] > 100 µM | [14] > 100 µM | [5] 31.2 µM | [6] 85.7 µM | [7] 68.4 µM | [8] > 100 µM | [9] 67.3 µM | [10] 61.9 µM | [11] > 100 µM | [16] > 100 µM | [17] > 100 µM | [12] > 100 µM

O=C(N/N=C/c1ccccc1O)N/N=C/c1ccccc1O
inactive: [18] > 100 µM | [2] > 100 µM | [13] > 100 µM | [3] > 100 µM | [14] > 100 µM | [5] > 100 µM | [6] > 100 µM | [7] > 100 µM | [15] > 100 µM | [8] > 100 µM | [9] > 100 µM | [10] > 100 µM | [11] > 100 µM | [16] > 100 µM | [17] > 100 µM | [12] > 100 µM

CC(OC(=O)NCn1cc(-c2ccccc2)nn1)c1ccccc1 (stereo not drawn)
inactive: [1] 17.3 µM | [18] 27.4 µM | [2] 46.5 µM | [3] 38.9 µM | [4] 30.2 µM | [14] > 100 µM | [5] 20.8 µM | [6] 44.4 µM | [7] 35.7 µM | [8] 31.6 µM | [9] 43.8 µM | [10] 45.7 µM | [11] 30.3 µM | [17] 39.2 µM | [12] 27.1 µM
